Measured values from US20230125698A1, “APHERESIS COLUMN FOR TREATING RHEUMATOID ARTHRITIS” (UNIVERSITÉ PAUL SABATIER TOULOUSE III, priority 2020, published 2023).
Non-standard residues stand in square brackets, D forms with d. No end group written: not given here. Cit = NC(=O)NCCC[C@H](N)C(=O)O

Assays:
[1] = tested on: anti-citrullinated peptide/protein antibodies (ACPA) in serums from AhFibA-positive rheumatoid arthritis patients; experiment: ELISA reactivity of rheumatoid arthritis patient serums with respect to the citrullinated peptides; assay type: binding, human; parameters: key to Reactivity profile of serum with respect to the peptide: +++: strong positive; ++: medium positive; +: weak positive; empty box: negative; conditions: for Correlation between the reactivities of the serums with respect to the different peptides (Spearman): 202 serums, peptide pairs compared; for Reactivity profile of serum with respect to the peptide: ELISA
Procedure: Serum samples were obtained from 202 rheumatoid arthritis patients positive for the “AhFibA” ELISA test, which allows to detect and titer the ACPA using the citrullinated human fibrinogen as an immunosorbent.
The antigens or immunosorbents (citrullinated fibrinogen or citrullinated and non-citrullinated peptides), solubilised in PBS (1.5 mM KH2PO4 SIGMA 795488; 7 mM K2HPO4 SIGMA P3786; 0.15M NaCl SIGMA 31434; pH 7.2) at concentrations of 5 and 10 μg/mL, are adsorbed in the microtiter plate wells (MAXISORP NUNC 2023-09) by incubation overnight at 4° C., or used in avidin-biotin system: avidin 5 μg/mL in PBS incubated overnight at 4° C. and then, after washing, biotinylated peptide at 10 μg/mL in PBS, incubated 1 h at 4° C. After blocking in PBS 2% BSA (Sigma A3059) for 1 hour at 4° C. and washing in PBS 0.1% Tween®20 (SIGMA P1379), the samples to be tested are deposited diluted 1:50 (1:100 in the Avidin-Biotin system) or at equivalent corrected dilutions, in PBS 2% BSA 2MNaCl. After washing, the secondary antibody (goat anti-human IgG Fc fragment coupled to horseradish peroxidase; Southern Biotech 2040-05) is incubated for 1 hour at 4° C. After washing, the revelation is performed with a solution of Ortho-Phenylene Diamine dihydrochloride (Sigma P2788), 0.03% H2O2 (Sigma H1009), in citrate/H3PO4 buffer pH5 (0.05 M citric acid Sigma C0759; 0.1 M Na2HPO4 Prolabo 28026292) for 5 minutes at room temperature, and then stopped with a solution of H2SO4 6N (Sigma 07208). The optical density (OD) is read at 492 nm with a Multiskan Fc plate reader (ThermoScientific).
Expression of the results of the ELISA tests: for the peptides, the variation in OD between the reactivity of the citrullinated peptide and the reactivity of the non-citrullinated peptide is taken into account, each reactivity being previously subtracted from its blank (OD in the absence of sample). This gives the following formula:
ΔDO=(DOcit−DOblank cit)−(DOnoncit−DOblank noncit) [Math 1]
The ΔDO for the peptides and the OD for the citrullinated fibrinogen are considered to express the titer of the samples tested.
The inter-assay variations are corrected for by using a range of dilutions of a pool of patient serums tested in each microtiter plate. This reference pool, named P97, was made up of 97 samples of the same volume from 97 patients with a high ACPA titer. The OD values of this internal range are compared to that of reference values where each point in the range is the average of 30 determinations previously performed from this same pool. The least squares method then allows to obtain a correction factor which is applied to all the OD values obtained on the corresponding plate. This corrected OD corresponds to the titer of the sample.
The reactivity profiles of the 202 samples of patient serums with respect to the citrullinated fibrinogen and the 4 citrullinated peptides were determined by ELISA in at least two independent assays, each being done in duplicate. For the sake of reproducibility, only the microtiter plates whose internal range required the application of a correction factor between 0.5 and 2 with respect to the reference range were considered.

[2] = tested on: anti-citrullinated peptide/protein antibodies (ACPA) in serums from AhFibA-positive rheumatoid arthritis patients; experiment: as above; assay type: binding, human; conditions: β60-74Cit-NH2 and/or Ac-α36-50Cit
[3] = serum n°1, ACPA-positive RA patient serum
[4] = serum n°6, ACPA-positive RA patient serum
[5] = serum n°10, ACPA-positive RA patient serum
[6] = serum n°16, ACPA-positive RA patient serum
[7] = serum n°17, ACPA-positive RA patient serum
[8] = serum n°22, ACPA-positive RA patient serum
[9] = serum n°25, ACPA-positive RA patient serum
[10] = serum n°29, ACPA-positive RA patient serum
[11] = serum n°41, ACPA-positive RA patient serum
[12] = serum n°64, ACPA-positive RA patient serum

| Substance | Correlation between the reactivities of the serums with respect to the different peptides (Spearman) [1] | Reactivity profile of serum with respect to the peptide [1, 3] | Reactivity profile of serum with respect to the peptide [1, 4] | Reactivity profile of serum with respect to the peptide [1, 5] | Reactivity profile of serum with respect to the peptide [1, 6] | Reactivity profile of serum with respect to the peptide [1, 7] | Reactivity profile of serum with respect to the peptide [1, 8] | Reactivity profile of serum with respect to the peptide [1, 9] | Reactivity profile of serum with respect to the peptide [1, 10] | Reactivity profile of serum with respect to the peptide [1, 11] | Reactivity profile of serum with respect to the peptide [1, 12] | Percentage of RA serums positive (reactive in ELISA) for the peptide ([1]; 202 serums from AhFibA-positive RA patients) | Reactivity of the plasmas tested to the peptide [2] |
| --- | --- | --- | --- | --- | --- | --- | --- | --- | --- | --- | --- | --- | --- |
| VDIDIKIX1SCX2GSCS (VDIDIKI[Cit]SC[Cit]GSCS; cysteine pairing not given here) [α171-185Cit, X1 and X2 citrullyl residues; fibrinogen α-chain 171-185] | significant correlations | + | + | + | ++ | +++ | +++ | [empty] | [empty] | ++ | [empty] | – | – |
| X1PAPPPISGGGYX2AX3 ([Cit]PAPPPISGGGY[Cit]A[Cit]-NH2; N-terminus assumed; SMILES CC[C@H](C)[C@H](NC(=O)[C@@H]1CCCN1C(=O)[C@@H]1CCCN1C(=O)[C@@H]1CCCN1C(=O)[C@H](C)NC(=O)[C@@H]1CCCN1C(=O)[C@@H](N)CCCNC(N)=O)C(=O)N[C@@H](CO)C(=O)NCC(=O)NCC(=O)NCC(=O)N[C@@H](Cc1ccc(O)cc1)C(=O)N[C@@H](CCCNC(N)=O)C(=O)N[C@@H](C)C(=O)N[C@@H](CCCNC(N)=O)C(N)=O) [β60-74Cit-NH2, X1, X2 citrullyl; X3 citrullyl derivative with carboxamide in place of terminal carboxyl; fibrinogen β-chain 60-74] | significant correlations | +++ | +++ | +++ | [empty] | +++ | ++ | ++ | [empty] | [empty] | +++ | 76% | most of the plasmas tested were reactive |
| X1GHAKSX2PVX3GIHTS ([Cit]GHAKS[Cit]PV[Cit]GIHTS) [α621-635Cit, X1, X2 and X3 citrullyl residues; fibrinogen α-chain 621-635] | significant correlations | + | +++ | [empty] | +++ | +++ | ++ | + | +++ | [empty] | [empty] | – | – |
| GPX1VVEX2HQSACKDS (Ac-GP[Cit]VVE[Cit]HQSACKDS) [Ac-α36-50Cit, N-terminal G acetylated; X1 and X2 citrullyl residues; fibrinogen α-chain 36-50] | no correlation was found | [empty] | [empty] | [empty] | + | + | [empty] | +++ | + | +++ | +++ | – | most of the plasmas tested were reactive |
